Data: patent US20130059824A1, “METHODS FOR TREATING MILD COGNITIVE IMPAIRMENT” (AFRAXis, Inc., priority 2009, published 2013)
pIC50: −log10 of the molar value.

How the values were obtained:
PAK1 = PAK1 (Homo sapiens, UniProt Q13153); experiment: Z'Lyte fluorescence-based (FRET) kinase assay, PAK1; format: biochemical; conditions: 50 μM ATP (Km apparent), 1 hr room temperature
Method: (§1) A fluorescence-based assay format is used to determine IC50 values of test compounds in vitro. Purified PAK kinase is incubated with ATP, and a test compound at various concentrations and a substrate peptide containing two fluorophores. In a second step, the reaction mix is incubated with a site-specific protease that cleaves non-phosphorylated but not phosphorylated substrate peptide, disrupting the FRET signal generated by the two fluorophores in the cleaved peptide (Z'Lyte™ Kinase assay platform; Life Technologies).
(§2) Reagents: 50 mM HEPES, pH 7.5; 0.01% BRIJ-35; 10 mM MgCl2; 1 mM EGTA, 2 uM substrate peptide Ser/Thr20 (proprietary Life Technologies Sequence), PAK enzyme [2.42-30.8 ng for PAK1, 0.29-6 ng for PAK2, 1.5-20 ng for PAK3 and 0.1-0.86 ng for PAK4; actual enzyme amounts depend on lot activity of the enzyme preparation]
(§3) Test compounds are dissolved in DMSO at various concentrations; the final DMSO concentration in the assay reaction is 1%.
(§4) ATP concentration at Km apparent is used in the assay [50 ? M ATP for PAK1 assay, 75 ? […]
(§5) Plates are analyzed in a standard fluorescence plate reader (Tecan or equivalent) using an excitation wavelength of 400 nm and emission wavelengths of 445 nm and 520 nm Inhibition of kinase reaction is determined by emission ratio=emission@ 445 nm/emission@ 520 nm

PAK2 = PAK2 (Homo sapiens, UniProt Q13177); experiment: Z'Lyte fluorescence-based (FRET) kinase assay, PAK2; format: biochemical; conditions: 75 μM ATP (Km apparent), 1 hr room temperature
Method: as §1, §2, §3, §4, §5

PAK3 = PAK3 (Homo sapiens, UniProt O75914); experiment: Z'Lyte fluorescence-based (FRET) kinase assay, PAK3; format: biochemical; conditions: 100 μM ATP (Km apparent), 1 hr room temperature
Method: as §1, §2, §3, §4, §5

PAK4 = PAK4 (Homo sapiens, UniProt O96013); experiment: Z'Lyte fluorescence-based (FRET) kinase assay, PAK4; format: biochemical; conditions: 5 μM ATP (Km apparent), 1 hr room temperature
Method: as §1, §2, §3, §4, §5

[1] = test system: C57/black 6 mice temporal cortex slices; experiment: Slice electrophysiology assay (LTP in cortical slices); format: cell-based; conditions: 1 μM compound; theta-burst stimulation protocol; temporal cortex slices of C57/black 6 mice
Method: Materials: coronal cortical slices (400 μam) containing temporal cortex from 2- to 3-month-old C57-Black-6 mice male littermates (from Elevage Janvier, FRANCE) are prepared and allowed to recover in oxygenated (95% O2 and 5% CO2) warm (30° C.) artificial cerebrospinal fluid (ACSF) containing 124 mM NaCl, 5 mM KCl, 1.25 mM, NaH2PO4, 1 mM MgCl2, 2 mM CaCl2, 26 mM NaHCO3, and 10 mM dextrose.
Compound dilution: a 10 mM DMSO stock solution is prepared for each test compound and 100 μL aliquots are stored at −20° C. On the day of experiment an aliquot is thawed and vortexed for fresh solutions preparation. […]
LTP: a stimulus is applied every 30 s with an intensity settled at 40% of the maximal amplitude responses. […] Potentiation of synaptic transmission is then monitored for an additional 40 minutes period. […]
Compound evaluation: following a 10 minutes control recording period (to verify baseline stability), the compound is perfused for 20 minutes. Then, LTP is triggered and the fEPSP amplitude will be recorded for an additional 40 minutes period in the presence of compound.
Data analysis: fEPSP amplitudes are measured as the difference between the baseline (before stimulation) and the maximal peak amplitude. The fEPSP are normalized as a percent of the mean averaged amplitude recorded over a 10 min control period, before compound application. […]

Sequence of PAK3 (O75914 whole entry): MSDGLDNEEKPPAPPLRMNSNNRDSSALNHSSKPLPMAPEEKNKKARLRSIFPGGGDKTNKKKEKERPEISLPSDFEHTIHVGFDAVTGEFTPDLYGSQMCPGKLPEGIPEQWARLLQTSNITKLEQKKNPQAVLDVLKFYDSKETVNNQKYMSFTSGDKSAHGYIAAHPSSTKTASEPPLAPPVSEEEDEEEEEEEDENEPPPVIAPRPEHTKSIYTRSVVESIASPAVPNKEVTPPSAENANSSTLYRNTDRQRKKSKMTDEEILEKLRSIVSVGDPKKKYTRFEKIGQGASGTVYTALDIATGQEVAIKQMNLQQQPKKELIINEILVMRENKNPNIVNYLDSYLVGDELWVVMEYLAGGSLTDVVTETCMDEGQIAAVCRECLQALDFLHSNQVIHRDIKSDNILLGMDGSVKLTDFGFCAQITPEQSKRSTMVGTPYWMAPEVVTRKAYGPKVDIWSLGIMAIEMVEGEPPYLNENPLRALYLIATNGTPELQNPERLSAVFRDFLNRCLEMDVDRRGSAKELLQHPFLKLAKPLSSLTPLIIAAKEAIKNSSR
Sequence of PAK2 (Q13177 whole entry): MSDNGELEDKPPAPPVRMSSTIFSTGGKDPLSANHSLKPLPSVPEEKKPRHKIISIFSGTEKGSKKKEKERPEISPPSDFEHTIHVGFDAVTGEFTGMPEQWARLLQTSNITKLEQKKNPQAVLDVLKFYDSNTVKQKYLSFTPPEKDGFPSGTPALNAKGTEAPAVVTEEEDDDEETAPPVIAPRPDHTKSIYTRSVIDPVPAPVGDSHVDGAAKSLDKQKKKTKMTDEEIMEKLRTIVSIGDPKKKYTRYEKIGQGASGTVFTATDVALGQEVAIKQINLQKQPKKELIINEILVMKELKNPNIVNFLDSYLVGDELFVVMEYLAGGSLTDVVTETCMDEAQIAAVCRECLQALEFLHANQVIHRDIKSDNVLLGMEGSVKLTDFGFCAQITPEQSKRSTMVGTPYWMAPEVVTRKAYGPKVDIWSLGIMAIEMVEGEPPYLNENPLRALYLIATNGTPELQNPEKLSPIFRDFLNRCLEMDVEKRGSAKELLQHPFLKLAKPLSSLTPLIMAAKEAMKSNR
Sequence of PAK4 (O96013 whole entry): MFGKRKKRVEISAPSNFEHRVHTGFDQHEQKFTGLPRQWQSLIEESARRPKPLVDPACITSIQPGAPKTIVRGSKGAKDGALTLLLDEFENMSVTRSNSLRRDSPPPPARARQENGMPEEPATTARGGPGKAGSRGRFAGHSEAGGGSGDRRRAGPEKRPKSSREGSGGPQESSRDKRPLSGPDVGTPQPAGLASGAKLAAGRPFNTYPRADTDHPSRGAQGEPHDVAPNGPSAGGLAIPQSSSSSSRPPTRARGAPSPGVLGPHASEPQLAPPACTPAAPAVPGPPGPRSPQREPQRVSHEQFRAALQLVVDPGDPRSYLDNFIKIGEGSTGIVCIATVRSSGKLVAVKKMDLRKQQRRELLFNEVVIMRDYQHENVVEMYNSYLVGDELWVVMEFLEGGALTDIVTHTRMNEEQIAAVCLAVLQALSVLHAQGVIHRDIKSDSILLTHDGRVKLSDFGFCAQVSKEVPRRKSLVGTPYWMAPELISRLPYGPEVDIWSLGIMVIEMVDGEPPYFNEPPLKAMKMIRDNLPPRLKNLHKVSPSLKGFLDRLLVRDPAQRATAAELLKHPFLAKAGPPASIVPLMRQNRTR
Sequence of PAK1 (Q13153 whole entry): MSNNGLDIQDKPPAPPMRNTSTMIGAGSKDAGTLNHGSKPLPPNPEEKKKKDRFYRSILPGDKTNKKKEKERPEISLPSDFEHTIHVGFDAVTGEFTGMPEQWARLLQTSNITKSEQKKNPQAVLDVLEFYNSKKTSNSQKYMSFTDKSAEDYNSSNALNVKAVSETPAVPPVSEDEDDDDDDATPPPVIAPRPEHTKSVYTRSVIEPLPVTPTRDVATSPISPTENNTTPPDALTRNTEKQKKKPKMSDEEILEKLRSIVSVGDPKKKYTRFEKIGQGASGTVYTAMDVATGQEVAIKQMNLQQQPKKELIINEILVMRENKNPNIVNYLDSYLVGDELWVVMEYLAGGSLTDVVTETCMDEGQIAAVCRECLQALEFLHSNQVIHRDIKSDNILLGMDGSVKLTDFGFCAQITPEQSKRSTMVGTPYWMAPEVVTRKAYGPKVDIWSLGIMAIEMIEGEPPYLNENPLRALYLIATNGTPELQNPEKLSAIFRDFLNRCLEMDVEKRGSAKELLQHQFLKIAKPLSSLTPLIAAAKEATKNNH

| pIC50 (PAK1) | pIC50 (PAK2) | pIC50 (PAK3) | pIC50 (PAK4) | SMILES | LTP compared to the baseline (fEPSP amplitude) [1] |
| --- | --- | --- | --- | --- | --- |
| > 6.00 | > 6.00 | > 6.00 | 5.00 to 6.00 | CCOc1ccccc1Cn1c(=O)ccc2cnc(Nc3ccc(N4CCN(C)CC4)cc3)nc21 [Compound 62] |  |
|  |  |  |  | COc1cc(Nc2nccc(-c3ccc(NCCN)nc3)n2)cc(OC)c1OC [Compound A] | increased LTP |
|  |  |  |  | CN1CCN(c2ccc(Nc3ncc4ccc(=O)n(C5CCCC5)c4n3)cc2)CC1 [Compound G, 8-cyclopentyl-2-(4-(4-methylpiperazin-1-yl)phenylamino)pyrido[2,3-d]pyrimidin-7(8H)-one] | increased LTP |
